Measured values reported in patent US20200016231A1, “BIOFILM DISRUPTING COMPOSITION” (Whiteley Corporation Pty Ltd, priority 2016, published 2020).
Read-outs that look alike come from different tables or passages of the source.

Legend:
Pseudomonas aeruginosa = experiment: Biofilm viability, resazurin assay, Pseudomonas aeruginosa clinical isolates; format: cell-based; details: read-out: % bacterial viability; for viability at 10000 µM: GSH 10 mM; for viability at 15000 µM: GSH 15 mM; for viability at 30000 µM: GSH 30 mM
[1] = system: methicillin-sensitive Staphylococcus aureus; experiment: microbe, parasite or virus in culture; format: cell-based; details: MSSA
Experimental: The treatments shown in column 1 of Table 4 were tested against three strains of methicillin-sensitive Staphylococcus aureus. […] The treatments shown in column 1 of Table 12 were tested against three strains of methicillin-sensitive Staphylococcus aureus.

[2] = system: Staphylococcus agalactiae; experiment: organism not typed; format: cell-based, Streptococcus agalactiae; details: for viability at 10000 µM: GSH 10 mM; for viability at 15000 µM: GSH 15 mM; for viability at 30000 µM: GSH 30 mM
Experimental: The treatments shown in column 1 of Table 5 were tested against four strains of […] agalactiae, (veterinary strains ex Cow mastitis). […] The treatments shown in column 1 of Table 13 were tested against four strains of […] agalactiae, (veterinary strains ex Cow mastitis).

Klebsiella pneumoniae = experiment: Biofilm viability, resazurin assay, Klebsiella pneumoniae clinical isolates; format: cell-based; details: read-out: % bacterial viability; for viability at 10000 µM: GSH 10 mM; for viability at 15000 µM: GSH 15 mM; for viability at 30000 µM: GSH 30 mM
Experimental: (§1) Bacterial isolates were grown in Tryptone Soya Broth (TSB) medium for 24 hours at 37° C., in a shaking incubator set at 150 rpm. After this time the organisms were harvested by centrifugation (5000×g, 5 min at 10° C.). After centrifugation, the supernatant liquid was removed and the bacterial pellet was suspended in 1×Phosphate Buffered Saline (PBS). To initiate biofilm growth, the bacterial suspension from PBS was immediately re-suspended in TSB and 250 μL of bacterial cell suspension (OD600=0.5±0.05) were added into the wells of 96-well plates (Corning Corp. USA) and incubated at 37° C. for 48 h at 150 r.p.m.
(§2) After 24 h, treated biofilms supernatant were replaced with 200 μL of 1×PBS, followed by addition of 15 μL of a 0.05% w/v solution of resazurin (Sigma-Aldrich), and incubated further at 37° C., 150 r.p.m.
(§3) After a further 24 h, the fluorescent intensity of the biofilm was determined at Ex544 nm and Em590 nm (Tecan infinite M1000 pro microplate reader). Results are plotted as percentage (%) of bacterial vaiability calculated based on fluorescent intensity. Control or untreated bacterial biofilm fluorescent intensity always considered as 100% bacterial viability and % viability under rest of treatment conditions were calculated with reference to control.
(§4) It should be noted that the Resazurin assay works by recording fluorescence intensity and depends upon two factors (total number of bacteria and total number of viable bacteria in a given biofilm sample).
The treatments shown in column 1 of table 7 were tested against three clinical isolates of Klebsiella pneumoniae.

E aerogenes = experiment: Biofilm viability, resazurin assay, Enterobacter species: E aerogenes; format: cell-based; details: E aerogenes 359475 Sternum, read-out: % bacterial viability
Experimental: as §1, §2, §3, §4
The treatments shown in column 1 of Table 8 were tested against three clinical isolates of Enterobacter species.

Escherichia coli = experiment: Biofilm viability, resazurin assay, Escherichia coli clinical isolates; format: cell-based; details: read-out: % bacterial viability; for viability at 10000 µM: GSH 10 mM; for viability at 15000 µM: GSH 15 mM; for viability at 30000 µM: GSH 30 mM
Experimental: as §1, §2, §3, §4
The treatments shown in column 1 of Table 9 were tested against three clinical isolates of Enterobacter species.

Streptococcus pyogenes = experiment: Biofilm viability, resazurin assay, Streptococcus pyogenes clinical isolates; format: cell-based; details: read-out: % bacterial viability; for viability at 10000 µM: GSH 10 mM; for viability at 15000 µM: GSH 15 mM; for viability at 30000 µM: GSH 30 mM
Experimental: as §1, §2, §3, §4
The treatments shown in column 1 of Table 10 were tested against three clinical isolates of Enterobacter species. The treatments used are given in column 1, and the % bacterial viability for each strain tested are given in the subsequent columns (see also FIG. 9).

biofilms = details: GSH at 30 milli Molar; also non-Pseudomonad organisms (FIGS. 1-13)
Experimental: as §1, with “r.p.m. […]” for “r.p.m.”
as §3, §4

[3] = system: Multidrug resistant Acinetobacter Baumannii, (MRAB); experiment: microbe, parasite or virus in culture
[4] = read-out: % bacterial viability, S. agalactiae # 30
[5] = read-out: % bacterial viability, S. agalactiae # 44
[6] = read-out: % bacterial viability, S. agalactiae # 70
[7] = read-out: % bacterial viability, S. agalactiae # 88
[8] = read-out: % bacterial viability, S. agalactiae # 106

N[C@@H](CCC(=O)N[C@@H](CS)C(=O)NCC(=O)O)C(=O)O [GSH, glutathione]
viability at 10000 µM (Pseudomonas aeruginosa; 364077 Scalp wound): 95.6%
viability at 15000 µM (Pseudomonas aeruginosa; 364077 Scalp wound): 93%
viability at 30000 µM (Pseudomonas aeruginosa; 364077 Scalp wound): 30.3%
viability at 10000 µM (Pseudomonas aeruginosa; 365707 Left ankle wound): 104%
viability at 15000 µM (Pseudomonas aeruginosa; 365707 Left ankle wound): 101%
viability at 30000 µM (Pseudomonas aeruginosa; 365707 Left ankle wound): 11.2%
viability at 10000 µM (Pseudomonas aeruginosa; PA0053 DFU): 89.8%
viability at 15000 µM (Pseudomonas aeruginosa; PA0053 DFU): 74.5%
viability at 30000 µM (Pseudomonas aeruginosa; PA0053 DFU): 7.3%
viability at 10000 µM ([1]; read-out: % bacterial viability, MSSA - 0800 DFU, GSH 10 mM): 82.4%
viability at 15000 µM ([1]; read-out: % bacterial viability, MSSA - 0800 DFU, GSH 15 mM): 61.7%
viability at 30000 µM ([1]; read-out: % bacterial viability, MSSA - 0800 DFU, GSH 30 mM): 20.1%
viability at 10000 µM ([1]; read-out: % bacterial viability, MSSA - 34397 Left elbow, GSH 10 mM): 88.7%
viability at 15000 µM ([1]; read-out: % bacterial viability, MSSA - 34397 Left elbow, GSH 15 mM): 61.3%
viability at 30000 µM ([1]; read-out: % bacterial viability, MSSA - 34397 Left elbow, GSH 30 mM): 1.06%
viability at 10000 µM ([1]; read-out: % bacterial viability, MSSA - 34654 Right toe, GSH 10 mM): 86.1%
viability at 15000 µM ([1]; read-out: % bacterial viability, MSSA - 34654 Right toe, GSH 15 mM): 70.5%
viability at 30000 µM ([1]; read-out: % bacterial viability, MSSA - 34654 Right toe, GSH 30 mM): 15.3%
viability at 10000 µM [2, 4]: 104%
viability at 15000 µM [2, 4]: 80.7%
viability at 30000 µM [2, 4]: 35.3%
viability at 10000 µM [2, 5]: 87%
viability at 15000 µM [2, 5]: 73.9%
viability at 30000 µM [2, 5]: 29.2%
viability at 10000 µM [2, 6]: 89.2%
viability at 15000 µM [2, 6]: 79.4%
viability at 30000 µM [2, 6]: 38.3%
viability at 10000 µM [2, 7]: 88%
viability at 15000 µM [2, 7]: 81.6%
viability at 30000 µM [2, 7]: 25%
viability at 10000 µM [2, 8]: 103%
viability at 15000 µM [2, 8]: 83.2%
viability at 30000 µM [2, 8]: 29.2%
viability at 10000 µM (Klebsiella pneumoniae; 374450 Catheter urine): 86%
viability at 15000 µM (Klebsiella pneumoniae; 374450 Catheter urine): 72.8%
viability at 30000 µM (Klebsiella pneumoniae; 374450 Catheter urine): 16.8%
viability at 10000 µM (Klebsiella pneumoniae; 377951 Left hip wound): 81.6%
viability at 15000 µM (Klebsiella pneumoniae; 377951 Left hip wound): 70.8%
viability at 30000 µM (Klebsiella pneumoniae; 377951 Left hip wound): 9.13%
viability at 10000 µM (Klebsiella pneumoniae; 385261 Neck wound): 78.8%
viability at 15000 µM (Klebsiella pneumoniae; 385261 Neck wound): 62.5%
viability at 30000 µM (Klebsiella pneumoniae; 385261 Neck wound): 14.1%
viability at 10000 µM (E aerogenes; GSH 10 mM): 79%
viability at 15000 µM (E aerogenes; GSH 15 mM): 55.1%
viability at 30000 µM (E aerogenes; GSH 30 mM): 14.6%
viability at 10000 µM (Escherichia coli; 362805 Exit): 75.7%
viability at 15000 µM (Escherichia coli; 362805 Exit): 71.8%
viability at 30000 µM (Escherichia coli; 362805 Exit): 0.7%
viability at 10000 µM (Escherichia coli; 365714 Wound): 108%
viability at 15000 µM (Escherichia coli; 365714 Wound): 93.4%
viability at 30000 µM (Escherichia coli; 365714 Wound): 12.3%
viability at 10000 µM (Escherichia coli; 366290 Drain fluid): 69.8%
viability at 15000 µM (Escherichia coli; 366290 Drain fluid): 68.7%
viability at 30000 µM (Escherichia coli; 366290 Drain fluid): 3.9%
viability at 10000 µM (Streptococcus pyogenes; 361194 Left leg boil): 55.6%
viability at 15000 µM (Streptococcus pyogenes; 361194 Left leg boil): 35.8%
viability at 30000 µM (Streptococcus pyogenes; 361194 Left leg boil): 4.3%
viability at 10000 µM (Streptococcus pyogenes; 371982 Skin Wound): 99.8%
viability at 15000 µM (Streptococcus pyogenes; 371982 Skin Wound): 90.2%
viability at 30000 µM (Streptococcus pyogenes; 371982 Skin Wound): 15.4%
viability at 10000 µM (Streptococcus pyogenes; 386596 Head Wound): 67.7%
viability at 15000 µM (Streptococcus pyogenes; 386596 Head Wound): 42.7%
viability at 30000 µM (Streptococcus pyogenes; 386596 Head Wound): 22.3%
killing/disrupting biofilms compared with antibiotics (biofilms): significantly higher effect than antibiotics
viability at 10000 µM ([3]; read-out: % bacterial viability, MRAB 1 014754 Urine, GSH 10 mM): 73.6%
viability at 15000 µM ([3]; read-out: % bacterial viability, MRAB 1 014754 Urine, GSH 15 mM): 55.6%
viability at 30000 µM ([3]; read-out: % bacterial viability, MRAB 1 014754 Urine, GSH 30 mM): 20.4%
viability at 10000 µM ([3]; read-out: % bacterial viability, MRAB 2 014801 Catheter, GSH 10 mM): 70.8%
viability at 15000 µM ([3]; read-out: % bacterial viability, MRAB 2 014801 Catheter, GSH 15 mM): 41.2%
viability at 30000 µM ([3]; read-out: % bacterial viability, MRAB 2 014801 Catheter, GSH 30 mM): 2.45%
viability at 10000 µM ([3]; read-out: % bacterial viability, MRAB 3 015069 Skin, GSH 10 mM): 84.6%
viability at 15000 µM ([3]; read-out: % bacterial viability, MRAB 3 015069 Skin, GSH 15 mM): 63.2%
viability at 30000 µM ([3]; read-out: % bacterial viability, MRAB 3 015069 Skin, GSH 30 mM): 37.7%
viability at 10000 µM ([3]; read-out: % bacterial viability, MRAB 4 015095 Hospital Environ, GSH 10 mM): 68%
viability at 15000 µM ([3]; read-out: % bacterial viability, MRAB 4 015095 Hospital Environ, GSH 15 mM): 57.7%
viability at 30000 µM ([3]; read-out: % bacterial viability, MRAB 4 015095 Hospital Environ, GSH 30 mM): 13.8%
viability at 10000 µM ([3]; read-out: % bacterial viability, MRAB 5 015103 Hospital Environ, GSH 10 mM): 65.1%
viability at 15000 µM ([3]; read-out: % bacterial viability, MRAB 5 015103 Hospital Environ, GSH 15 mM): 51.5%
viability at 30000 µM ([3]; read-out: % bacterial viability, MRAB 5 015103 Hospital Environ, GSH 30 mM): 16.7%
viability at 10000 µM ([3]; read-out: % bacterial viability, MRAB 12 016419 Catheter, GSH 10 mM): 80.8%
viability at 15000 µM ([3]; read-out: % bacterial viability, MRAB 12 016419 Catheter, GSH 15 mM): 49%
viability at 30000 µM ([3]; read-out: % bacterial viability, MRAB 12 016419 Catheter, GSH 30 mM): 18.4%
